Results from ChEMBL document CHEMBL4265947, “Conformation impacts on the bioactivities of SMART analogues” (Eur J Med Chem, 2018).

How the values were obtained:
SGC-7901 = experiment: Antiproliferative activity against human SGC7901 cells after 72 hrs by MTT assay; format: functional, cell-based; details: SGC-7901, 72 h
A549 = experiment: Antiproliferative activity against human A549 cells after 72 hrs by MTT assay; format: functional, cell-based; details: A549, 72 h
HT-1080 = experiment: Antiproliferative activity against human HT1080 cells after 72 hrs by MTT assay; format: functional, cell-based; details: HT-1080, 72 h
L929 = experiment: Antiproliferative activity against mouse L929 cells after 72 hrs by MTT assay; format: cell-based; details: L929, 72 h
[1] = Selectivity index, ratio of IC50 for mouse L929 cells to IC50 for human SGC7901 cells; format: toxicity; details: L929 cells versus SGC7901 cells, read-out: Ratio IC50
[2] = Selectivity index, ratio of IC50 for mouse L929 cells to IC50 for human A549 cells; format: toxicity; details: L929 cells versus A549 cells, read-out: Ratio IC50
[3] = Selectivity index, ratio of IC50 for mouse L929 cells to IC50 for human HT1080 cells; format: toxicity; details: L929 cells versus HT1080 cells, read-out: Ratio IC50
[4] = (§1) Inhibition of porcine tubulin polymerization preincubated for 1 min and measured for 82 mins by fluorescence assay; design: species or system Sus scrofa
Sus scrofa = species: Sus scrofa; experiment: as §1

IC50 (SGC-7901) [nM] | IC50 (A549) [nM] | IC50 (HT-1080) [nM] | IC50 [4] [nM] | inhibition (Sus scrofa) | Compound | IC50 (L929) [nM] | selectivity ratio [1] | selectivity ratio [2] | selectivity ratio [3]
380 | 1070 | 650 | 7710 | Dose-dependent effect | COc1cc(C(=O)c2nc(-c3ccc(C)cc3)n[nH]2)cc(OC)c1OC | 42600 | 112 | 39.8 | 65.5
 |  | 150 |  |  | COc1cc(C(=O)c2csc(-c3ccccc3)n2)cc(OC)c1OC |  |  |  | 
> 100000 | 35300 | > 100000 | > 100000 |  | COc1cc(C(=O)c2nnc(-c3ccc(C)cc3)s2)cc(OC)c1OC |  |  |  | 
6770 | 15300 | > 100000 |  |  | COc1cc(C(=O)c2nnc(-c3ccc(C)cc3)o2)cc(OC)c1OC |  |  |  | 

Compound | IC50 (SGC-7901) [nM] | IC50 (A549) [nM] | IC50 (HT-1080) [nM] | IC50 [4] [nM] | inhibition (Sus scrofa) | IC50 (L929) [nM] | selectivity ratio [1] | selectivity ratio [2] | selectivity ratio [3]
COc1cc2c(c(OC)c1OC)-c1ccc(OC)c(=O)cc1[C@@H](NC(C)=O)CC2 [COLCHICINE] | 134 | 137 | 42 |  |  | 1010 | 7.5 | 7.4 | 24
COc1ccc(/C=C\c2cc(OC)c(OC)c(OC)c2)cc1O [COMBRETASTATIN A4] | 12 | 16 |  |  |  | 820 |  |  | 
